Source: patent publication US20200207782A1, “CHEMICALLY ACTIVATED WATER-SOLUBLE PRODRUG” (SUMITOMO DAINIPPON PHARMA CO., LTD, priority 2017, published 2020)
Where a name gives a salt, the structure may show the parent alone.

Experiments:
[1] = Pharmacokinetics test, plasma concentration after intravenous administration; type: in vivo, CD1 (ICR) mice; details: mice
Protocol: The concentration of the active form (2-acetylthieno[3,2-f][1]benzofuran-4,8-dione) in plasma was measured for the water-soluble prodrug described in Example 1. The animal species, dosing method, preparation method of a standard solution, and the plasma concentration measurement method are the following.
Animals: 7-week old male CD1 (ICR) mice were used as the experimental animals.
Dosing method: the test sample was weighed and then dissolved in a 50 mmol/L glycine buffered saline (pH 2.0) as the administered solution. The body weight of mice was measured, and the prepared solution was intravenously administered.
Blood collection method: heparin was added to a blood collection tube, and blood was collected from mice. 1% quantity of 46% citric acid was added to the obtained blood, which was centrifuged to give the plasma. 10% quantity of 1 mol/L HCl was added to the collected plasma as the plasma sample. 10% quantity of 1 mol/L HCl added to blank plasma was used as the blank sample. […]
Plasma concentration measurement: 100 ug/mL of standard solution was diluted with an acetonitrile solution to prepare a calibration curve sample with a concentration of interest. […] 180 uL of internal standard containing acetonitrile (containing 1% quantity of 10 mol/L HCl) was added to each of the plasma calibration curve sample and sample for plasma analysis. […]

[2] = Evaluation of conversion rate to active form in human plasma; type: in vitro ADME; details: for Measurement value % of test compound (ratio of decrease): 37° C., 10 umol/L
Protocol: (§1) The ratio of decrease of a test compound and the conversion ratio to a corresponding active form (2-acetylthieno[3,2-f][1]benzofuran-4,8-dione) in human plasma and CD1 mouse plasma were measured for Example 1.
(§2) The test compounds were incubated at 37° C. at a concentration of 10 umol/L in human plasma (cat. no. 12250210, Cosmo Bio) and CD1 mouse plasma (cat. no. AP3054, KAC) and retrieved for a given time (0, 5, 10, 30, 60, and 120 minutes) and deproteinized, then analyzed by LC-MS. Acetonitrile comprising each of 10% quantity of 1 mol/L hydrochloric acid, 1% quantity of 46% citric acid, and phenytoin as an internal standard was used for deproteinization.
(§3) LC-MS measurement conditions were the following.
(§4) The yield of the Examples compounds and active form 2-acetylthieno[3,2-f][1]benzofuran-4,8-dione is calculated with each of the peak area of the Example compounds at 0 minutes and the peak area upon dissolution of 2-acetylthieno[3,2-f][1]benzofuran-4,8-dione at 100 umol/L as 100%. The yield is denoted in terms of %.
(§5) In the same manner as Example 1, the conversion ratio to an active form was measured for each of the various test compounds in human plasma and CD1 mouse plasma, with incubation time as 120 minutes. It was confirmed that the series of compounds of the invention was converted to an active form with a small interspecies difference in human plasma and CD1 mouse plasma.
(§6) The yield of the active forms is calculated with the each peak area upon dissolution of the generated active form at 100 umol/L as 100%. The yield is denoted in terms of %.

[3] = Evaluation of conversion rate to active form in CD1 mouse plasma; type: in vitro ADME; details: CD1 mouse plasma; for Test compound remaining (% of 0 min peak area): 37° C., 10 umol/L
Protocol: as §1, §2, §3, §4, §5, §6

[4] = Solution stability test (residual ratio and generation of active form in buffers of pH 2.0 to 9.0); type: physicochemical; set-up: Rate of generation of active form after 24 hours in buffer with pH of 7.4: tested at 25 µM; details: for Residual ratio: 25 umol/L
In short: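 Compounds at 25 umol/L incubated at 25 °C in 50 mmol/L buffers: glycine (pH 2.0, 9.0), citrate (pH 3.0, 5.0), phosphate (pH 7.4). HPLC at 0, 3, 6, 9, 12 and 24 h. Residual % relative to 0-time peak area; active-form yield relative to a 100 umol/L active-form reference peak.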

[5] = physchem; details: pH 2, aqueous buffer, thermodynamic from solid
Protocol: The solubility of the water-soluble prodrugs described in the Examples and the Reference Examples was measured. […] The filtrate was measured by HPLC.

CC(=O)c1cc2c(OC(=O)NCCNCC(=O)O)c3ccsc3c(OC(=O)NCCNCC(=O)O)c2o1 [Example 1, 2,2′-[(2-Acetylthieno[3,2-f][1]benzofuran-4,8-diyl)bis(oxycarbonyliminoethane-2,1-diylimino)]diacetic acid dihydrochloride]
Generation of active form after intravenous administration (in words) [1]: quickly generated
Degradation in plasma (in words) ([2]; human plasma): quickly progressed
Interspecies difference of conversion to active form (in words) ([2]; human plasma versus CD1 mouse plasma): interspecies difference was small
Measurement value % of test compound (ratio of decrease) ([2]; human plasma, 0 minutes): 100%
Measurement value % of test compound (ratio of decrease) ([2]; human plasma, 5 minutes): 0.0%
Measurement value % of test compound (ratio of decrease) ([2]; human plasma, 10 minutes): 0.0%
Measurement value % of test compound (ratio of decrease) ([2]; human plasma, 30 minutes): 0.0%
Measurement value % of test compound (ratio of decrease) ([2]; human plasma, 60 minutes): 0.0%
Measurement value % of test compound (ratio of decrease) ([2]; human plasma, 120 minutes): 0.0%
Degradation in plasma (in words) [3]: quickly progressed
Test compound remaining (% of 0 min peak area) ([3]; 0 minutes): 100%
Test compound remaining (% of 0 min peak area) ([3]; 5 minutes): 0.11%
Test compound remaining (% of 0 min peak area) ([3]; 10 minutes): 0.01%
Test compound remaining (% of 0 min peak area) ([3]; 30 minutes): 0.01%
Test compound remaining (% of 0 min peak area) ([3]; 60 minutes): 0.01%
Test compound remaining (% of 0 min peak area) ([3]; 120 minutes): 0.08%
Residual ratio ([4]; pH2.0 buffer, 25° C., 0 hr): 100%
Residual ratio ([4]; pH2.0 buffer, 25° C., 3 hr): 100%
Residual ratio ([4]; pH2.0 buffer, 25° C., 6 hr): 103%
Residual ratio ([4]; pH2.0 buffer, 25° C., 9 hr): 102%
Residual ratio ([4]; pH2.0 buffer, 25° C., 12 hr): 102%
Residual ratio ([4]; pH2.0 buffer, 25° C., 24 hr): 98.6%
Degradation behaviour in buffers (in words) ([4]; pH 2.0 to 9.0): pH dependent and chemical degradation progressed
Residual ratio ([4]; pH3.0 buffer, 25° C., 0 hr): 99.9%
Residual ratio ([4]; pH3.0 buffer, 25° C., 3 hr): 97.6%
Residual ratio ([4]; pH3.0 buffer, 25° C., 6 hr): 95.3%
Residual ratio ([4]; pH3.0 buffer, 25° C., 9 hr): 95.6%
Residual ratio ([4]; pH3.0 buffer, 25° C., 12 hr): 90.9%
Residual ratio ([4]; pH3.0 buffer, 25° C., 24 hr): 86.9%
Residual ratio ([4]; pH5.0 buffer, 25° C., 0 hr): 85.1%
Residual ratio ([4]; pH5.0 buffer, 25° C., 3 hr): 6.6%
Residual ratio ([4]; pH5.0 buffer, 25° C., 6 hr): 3.9%
Residual ratio ([4]; pH5.0 buffer, 25° C., 9 hr, dihydrochloride): 0%
Residual ratio ([4]; pH5.0 buffer, 25° C., 12 hr): 0.0%
Residual ratio ([4]; pH5.0 buffer, 25° C., 24 hr): 0.0%
Residual ratio ([4]; pH7.4 buffer, 25° C., 0 hr, dihydrochloride): 0%
Residual ratio ([4]; pH7.4 buffer, 25° C., 3 hr): 0.0%
Residual ratio ([4]; pH7.4 buffer, 25° C., 6 hr): 0.0%
Residual ratio ([4]; pH7.4 buffer, 25° C., 9 hr): 0.0%
Residual ratio ([4]; pH7.4 buffer, 25° C., 12 hr): 0.0%
Residual ratio ([4]; pH7.4 buffer, 25° C., 24 hr): 0.0%
Rate of generation of active form after 24 hours in buffer with pH of 7.4 ([4]; pH 7.4 buffer, 24 hours, 25° C.): 92%
Residual ratio ([4]; pH9.0 buffer, 25° C., 0 hr, dihydrochloride): 0%
Residual ratio ([4]; pH9.0 buffer, 25° C., 3 hr): 0.0%
Residual ratio ([4]; pH9.0 buffer, 25° C., 6 hr): 0.0%
Residual ratio ([4]; pH9.0 buffer, 25° C., 9 hr): 0.0%
Residual ratio ([4]; pH9.0 buffer, 25° C., 12 hr): 0.0%
Residual ratio ([4]; pH9.0 buffer, 25° C., 24 hr): 0.0%
Stability in solution (in words) ([4]; pH of 2.0, 25° C.): very stable
Stability in solution (in words) ([4]; pH of 3.0, 25° C.): sufficiently stable
solubility at 24 h [5]: > 10000 µg/mL
